Source: patent US20200215233A1, “ANTIMICROBIAL COATING” (Boulos & Cooper Pharmaceuticals Pty Ltd, priority 2017, published 2020)

Assays:
[1] = Solubility of BCP3 in water and base; assay type: physicochemical
[2] = system: methicillin resistant-S. aureus (MRSA) (ATCC 43300); experiment: Determination of the minimum inhibitory concentration (MRSA); assay type: cell-based; settings: Staphylococcus aureus, 24 h at 37° C., lowest concentration at which greater than 90% inhibition of bacterial growth was observed
Description: (§1) Three bacterial strains—two Gram-positive bacteria: Staphylococcus aureus (ATCC 29213) (MSSA) and methicillin resistant-S. aureus (MRSA) (ATCC 43300); and a Gram-negative Pseudomonas aeruginosa (ATCC 27853) were used in this study. Bacterial stocks (stored at −80° C. in nutrient broth with 15% glycerol) were streaked onto nutrient agar (Oxoid, Basingstoke, UK) plates for use as the working stock. From the stock an overnight bacterial culture grown in nutrient broth was diluted 1:100 into specific growth media, including tryptic soya broth for S. aureus and Luria-Bertani broth for P. aeruginosa. The final concentration of bacteria was made up to 1×10^5 cfu/mL for the inhibition assays. BCP3 was suspended in respective bacterial media to afford 5 mg/mL suspension. The stock suspension was then twice and ten times diluted to finally obtain concentrations ranging from 8×10^−4-5 mg/mL. Aliquots of 20 μL of each concentration were then added in quadruplicate to wells containing 80 μL of 1×10^5 cfu/mL bacterial solutions in a 96 well plate format for final well concentrations of 1.6×10^−4-1 mg/mL of BCP3. […] After 24 h, 100 μL from each well was transferred into a TOPS 96 well plate (Nunc) and the optical density was measured at 600 nm using a BioTek plate reader. The inhibition of bacterial growth was determined relative to the control (%). […]

[3] = system: L929 cells; experiment: Determination of minimal BCP3 cytotoxic concentration (MTS assay); assay type: cell-based
Description: BCP3 was sterilized via incubation in 80% ethanol in a sterile glass vial for 1 h prior to being vacuum dried at 120° C. for 5 h (0.2 mbar). Subsequently BCP3 was suspended in complete minimum essential medium (MEM, containing 10% (v/v) FBS and 1% (v/v) non-essential amino acids) to afford a 5 mg/mL suspension. The stock suspension was then twice and ten times diluted to finally obtain concentrations ranging from 8×10^−4-5 mg/mL. Aliquots of 20 μL of each concentration were then added in quadruplicate to wells previously seeded with L929 cells containing 80 μL of complete MEM (18,000 cells per well, 16 h) in a 96 well plate format for final well concentrations of 1.6×10^−4-1 mg/mL. Additional controls were added to wells containing pre-seeded cells; medium alone, 5%, and 10% (v/v) dimethylsulfoxide (DMSO, Sigma) in medium. The plate was subsequently incubated for 21 h (37° C., 5% CO2). An 3-(4,5-dimethylthiazol-2-yl)-5(3-carboxymethoxyphenyl)-2-(4-sulfophenyl)-2H-tetrazolium (MTS) assay was then utilized to determine cell viability based on metabolic activity of cells. Stock solutions of 4 mM MTS (Promega) in PBS and 3 mM of phenazine methosulfate (PMS, Sigma) in PBS were used to make up a mixture of MTS and PMS reagent. A working assay reagent solution was made up by addition of 2 mL of MTS and 100 μL of PMS stock solutions per 10 mL of complete medium. Media was removed from the sample and control wells and washed with 120 μL of fresh medium; subsequently 100 μL of the assay reagent solution was added to wells then incubated for 3 h at 37° C., 5% CO2. For colorimetric analysis, plates were read in a BioTek plate reader at wavelengths 490 nm and 655 nm. The difference in readings at the two wavelengths was used to calculate cell attachment compared to controls.

[4] = system: Pseudomonas aeruginosa (ATCC 27853); experiment: Determination of the minimum inhibitory concentration (P. aeruginosa); assay type: cell-based
Description: as §1

[5] = system: Staphylococcus aureus (ATCC 29213) (MSSA); experiment: Determination of the minimum inhibitory concentration (MSSA); assay type: cell-based; settings: 24 h at 37° C., lowest concentration at which greater than 90% inhibition of bacterial growth was observed
Description: as §1

- solubility in the presence of bases ([1]; in the presence of bases such as NaOH): highly soluble
- solubility in water ([1]; water): minimally soluble
- MIC [2]: 15.6 µg/mL
- MIC ([4]; Pseudomonas aeruginosa, ATCC27853, P. aeruginosa, 24 h at 37° C., lowest concentration at which greater than 90% inhibition of bacterial growth was observed): > 1000 µg/mL
- MIC [5]: 15.6 µg/mL
SMILES: O=C(O)c1ccc(/C=C/c2cc(/C=C/c3ccc(C(=O)O)cc3)c(/C=C/c3ccc(C(=O)O)cc3)cc2/C=C/c2ccc(C(=O)O)cc2)cc1 [Formula E]
- cytotoxicity ([3]; L929 cells, up to 1 mg/mL): non-cytotoxic
- L929 cell viability ([3]; at 1 mg/mL BCP3, 21 h, compared to TOPS control): 85%
- L929 cell viability ([3]; at all concentrations, 1.6×10^−4-1 mg/mL, 21 h): above 70%
- maximum inhibition of P. aeruginosa growth ([4]; at 1 mg/mL BCP3, 24 h): 32%
